From patent publication US9487510B2, “Substituted heterocyclic acetamides as kappa opioid receptor (KOR) agonists” (Dr. Reddy's Laboratories Ltd., priority 2012, dated 2016)

Molecular target: human KOR receptor (Homo sapiens, UniProt P41145)
Experiment: IP-One HTRF assay, potency of KOR agonists, dose-response in transiently transfected COS-7 cells
Format: cell-based

Chain of human KOR receptor (P41145 whole entry): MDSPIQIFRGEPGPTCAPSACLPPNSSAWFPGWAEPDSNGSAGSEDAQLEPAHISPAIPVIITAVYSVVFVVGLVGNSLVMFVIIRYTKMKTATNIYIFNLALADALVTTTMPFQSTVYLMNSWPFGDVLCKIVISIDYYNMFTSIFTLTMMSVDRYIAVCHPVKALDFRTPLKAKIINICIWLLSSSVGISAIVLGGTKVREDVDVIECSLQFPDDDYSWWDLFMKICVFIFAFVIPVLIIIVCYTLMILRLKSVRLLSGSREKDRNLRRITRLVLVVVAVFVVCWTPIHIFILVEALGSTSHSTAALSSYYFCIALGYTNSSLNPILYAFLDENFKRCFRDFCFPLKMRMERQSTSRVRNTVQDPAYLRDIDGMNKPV

SMILES | EC50
CN(C(=O)Cc1ccc2c(c1)NC(=O)CS2(=O)=O)[C@H](CN1CC[C@H](O)C1)c1cccc(OCC(F)(F)F)c1 [Example 144, 2-(1,1-dioxido-3-oxo-3,4-dihydro-2H-benzo [b][1,4]thiazin-6-yl)-N-((S)-2-((S)-3-hydroxypyrrolidin-1-yl)-1-(3-(2,2,2-trifluoroethoxy)phenyl)ethyl)-N-methylacetamide] | ≤ 50 nM
Cc1cccc([C@@H](CN2CC[C@H](O)C2)N(C)C(=O)Cc2ccc3c(c2)NC(=O)CS3(=O)=O)c1 [Example 145, 2-(1,1-dioxido-3-oxo-3,4-dihydro-2H-benzo [b][1,4]thiazin-6-yl)-N-((S)-2-((S)-3-hydroxypyrrolidin-1-yl)-1-(m-tolyl)ethyl)-N-methylacetamide] | ≤ 50 nM
CN(C(=O)Cc1ccc2c(c1)NC(=O)CS2(=O)=O)[C@H](CN1CC[C@H](O)C1)c1ccc(F)c(OC(F)(F)F)c1 [Example 146, 2-(1,1-dioxido-3-oxo-3,4-dihydro-2H-benzo[b][1,4]thiazin-6-yl)-N-((S)-1-(4-fluoro-3-(trifluoromethoxy)phenyl)-2-((S)-3-hydroxypyrrolidin-1-yl)ethyl)-N-methylacetamide] | ≤ 50 nM
CN(C(=O)Cc1ccc2c(c1)NC(=O)C(C)(C)S2(=O)=O)[C@H](CN1CC[C@H](O)C1)c1cccc(OC(F)(F)F)c1 [Example 148, 2-(2,2-dimethyl-1,1-dioxido-3-oxo-3,4-dihydro-2H-benzo[b][1,4]thiazin-6-yl)-N-((S)-2-((S)-3-hydroxypyrrolidin-1-yl)-1-(3-(trifluoromethoxy)phenyl)ethyl)-N-methylacetamide] | ≤ 50 nM
CN(C(=O)Cc1ccc2c(c1)NC(=O)CS2(=O)=O)[C@H](CN1CC[C@H](O)C1)c1cc(F)cc(OCC(F)(F)F)c1 [Example 149, 2-(1,1-dioxido-3-oxo-3,4-dihydro-2H-benzo[b][1,4]thiazin-6-yl)-N-((S)-1-(3-fluoro-5-(2,2,2-trifluoroethoxy)phenyl)-2-((S)-3-hydroxypyrrolidin-1-yl)ethyl)-N-methylacetamide] | ≤ 50 nM
CN(C(=O)Cc1ccc2c(c1)NC(=O)CS2)[C@H](CN1CC[C@H](O)C1)c1cccc(C#N)c1 [Example 152, N-((S)-1-(3-cyanophenyl)-2-((S)-3-hydroxypyrrolidin-1-yl)ethyl)-N-methyl-2-(3-oxo-3,4-dihydro-2H-benzo[b][1,4]thiazin-6-yl)acetamide] | ≤ 50 nM
CN(C(=O)Cc1ccc2c(c1)NC(=O)CO2)[C@H](CN1CC[C@H](O)C1)c1cccc(C#N)c1 [Example 153, N-((S)-1-(3-cyanophenyl)-2-((S)-3-hydroxypyrrolidin-1-yl)ethyl)-N-methyl-2-(3-oxo-3,4-dihydro-2H-benzo[b][1,4]oxazin-6-yl)acetamide] | ≤ 50 nM
CN(C(=O)Cc1ccc2c(c1)NC(=O)CS2)[C@H](CN1CC[C@H](O)C1)c1cccc(C(=O)O)c1 [Example 154, 3-((S)-2-((S)-3-hydroxypyrrolidin-1-yl)-1-(N-methyl-2-(3-oxo-3,4-dihydro-2H-benzo[b][1,4]thiazin-6-yl)acetamido)ethyl)benzoic acid] | ≤ 50 nM
CN(C(=O)Cc1ccc2c(c1)NC(=O)CO2)[C@H](CN1CC[C@H](O)C1)c1cccc(C(=O)O)c1 [Example 155, 3-((S)-2-((S)-3-hydroxypyrrolidin-1-yl)-1-(N-methyl-2-(3-oxo-3,4-dihydro-2H-benzo[b][1,4]oxazin-6-yl)acetamido)ethyl)benzoic acid] | ≤ 50 nM
CN(C(=O)Cc1ccc2c(c1)NC(=O)C2)[C@H](CN1CC[C@H](O)C1)c1cccc(C#N)c1 [Example 156, N-((S)-1-(3-cyanophenyl)-2-((S)-3-hydroxypyrrolidin-1-yl)ethyl)-N-methyl-2-(2-oxoindolin-6-yl)acetamide] | ≤ 50 nM
O=C1Cc2cc(CC(=O)N[C@H](CN3CC[C@H](O)C3)c3ccccc3)ccc2N1 [Example 157, N-((S)-2-((S)-3-hydroxypyrrolidin-1-yl)-1-phenylethyl)-2-(2-oxoindolin-5yl)acetamide] | ≤ 50 nM
CN(C(=O)Cc1ccc2c(c1)NC(=O)C2)[C@H](CN1CC[C@H](O)C1)c1cccc(OCC(=O)O)c1 [Example 159, 2-(3-((S)-2-((S)-3-hydroxypyrrolidin-1-yl)-1-(N-methyl-2-(2-oxoindolin-6-yl)acetamido)ethyl)phenoxy)acetic acid] | ≤ 50 nM
CN(C(=O)Cc1ccc2oc(=O)[nH]c2c1)[C@H](CN1CC[C@H](O)C1)c1cccc(C(N)=O)c1 [Example 160, 3-((S)-2-((S)-3-hydroxypyrrolidin-1-yl)-1-(N-methyl-2-(2-oxo-2,3-dihydrobenzo[d]oxazol-5-yl)acetamido)ethyl)benzamide] | ≤ 50 nM
CN(C(=O)Cc1ccc2c(c1)NC(=O)C2)[C@H](CN1CC[C@H](F)C1)c1cccc(OCC(=O)NS(C)(=O)=O)c1 [Example 162, N-((S)-2-((S)-3-fluoropyrrolidin-1-yl)-1-(3-(2-(methylsulfonamido)-2-oxoethoxy)phenyl)ethyl)-N-methyl-2-(2-oxoindolin-6-yl)acetamide] | ≤ 50 nM
CN(C(=O)Cc1ccc2ncc(=O)[nH]c2c1)[C@H](CN1CC[C@H](O)C1)c1cccc(C(N)=O)c1 [Example 164, 3-((S)-2-((S)-3-hydroxypyrrolidin-1-yl)-1-(N-methyl-2-(3-oxo-3,4-dihydroquinoxalin-6-yl)acetamido)ethyl)benzamide] | ≤ 50 nM
CN(C(=O)Cc1ccc2c(c1)NC(=O)C2)[C@H](CN1CC[C@H](F)C1)c1cccc(C(N)=O)c1 [Example 165, 3-((S)-2-((S)-3-fluoropyrrolidin-1-yl)-1-(N-methyl-2-(2-oxoindolin-6-yl)acetamido)ethyl)benzamide] | 101 to 1000 nM
CN(C(=O)Cc1ccc2sc(=O)[nH]c2c1)[C@H](CN1CC[C@H](O)C1)c1cccc(OCC(=O)O)c1 [Example 166, 2-(3-((S)-2-((S)-3-hydroxypyrrolidin-1-yl)-1-(N-methyl-2-(2-oxo-2,3-dihydrobenzo [d]thiazol-5-yl)acetamido)ethyl)phenoxy)acetic acid] | ≤ 50 nM
CN(C(=O)Cc1ccc2c(c1)NC(=O)CO2)[C@H](CN1CC[C@H](O)C1)c1cccc(OCC(=O)O)c1 [Example 167, 2-(3-((S)-2-((S)-3-hydroxypyrrolidin-1-yl)-1-(N-methyl-2-(3-oxo-3,4-dihydro-2H-benzo[b][1,4]oxazin-6-yl)acetamido)ethyl)phenoxy)acetic acid] | ≤ 50 nM
CN(C(=O)Cc1ccc2c(c1)NC(=O)CS2(=O)=O)[C@H](CN1CC[C@H](O)C1)c1cccc(OCC(N)=O)c1 [Example 168, N-((S)-1-(3-(2-amino-2-oxoethoxy)phenyl)-2-((S)-3-hydroxypyrrolidin-1-yl)ethyl)-2-(1,1-dioxido-3-oxo-3,4-dihydro-2H-benzo[b][1,4]thiazin-6-yl)-N-methylacetamide] | ≤ 50 nM
CN(C(=O)Cc1ccc2c(c1)CC(=O)N2)[C@H](CN1CC[C@H](O)C1)c1cccc(OCC(=O)O)c1 [Example 169, 2-(3-((S)-2-((S)-3-hydroxypyrrolidin-1-yl)-1-(N-methyl-2-(2-oxoindolin-5-yl)acetamido)ethyl)phenoxy)acetic acid] | ≤ 50 nM
CN(C(=O)Cc1ccc2sc(=O)[nH]c2c1)[C@H](CN1CC[C@H](O)C1)c1cccc(OCC(N)=O)c1 [Example 170, N-((S)-1-(3-(2-amino-2-oxoethoxy)phenyl)-2-((S)-3-hydroxypyrrolidin-1-yl)ethyl)-N-methyl-2-(2-oxo-2,3-dihydrobenzo[d]thiazol-5-yl)acetamide] | ≤ 50 nM
CN(C(=O)Cc1ccc2ncc(=O)[nH]c2c1)[C@H](CN1CC[C@H](O)C1)c1cccc(OCC(=O)O)c1 [Example 171, 2-(3-((S)-2-((S)-3-hydroxypyrrolidin-1-yl)-1-(N-methyl-2-(3-oxo-3,4-dihydroquinoxalin-6-yl)acetamido)ethyl)phenoxy)acetic acid] | ≤ 50 nM
CN(C(=O)Cc1ccc2c(c1)NC(=O)CS2)[C@H](CN1CC[C@H](O)C1)c1cccc(OCC(=O)O)c1 [Example 172, 2-(3-((S)-2-((S)-3-hydroxypyrrolidin-1-yl)-1-(N-methyl-2-(3-oxo-3,4-dihydro-2H-benzo[b][1,4]thiazin-6-yl)acetamido)ethyl)phenoxy)acetic acid] | ≤ 50 nM
CN(C(=O)Cc1ccc2c(c1)NC(=O)CO2)[C@H](CN1CC[C@H](O)C1)c1cccc(OCC(N)=O)c1 [Example 173, N-((S)-1-(3-(2-amino-2-oxoethoxy)phenyl)-2-((S)-3-hydroxypyrrolidin-1-yl)ethyl)-N-methyl-2-(3-oxo-3,4-dihydro-2H-benzo[b][1,4]oxazin-6-yl)acetamide] | ≤ 50 nM
CN(C(=O)Cc1ccc2c(c1)NC(=O)CS2(=O)=O)[C@H](CN1CC[C@H](O)C1)c1cccc(OCC(=O)NS(C)(=O)=O)c1 [Example 174, 2-(1,1-dioxido-3-oxo-3,4-dihydro-2H-benzo[b][1,4]thiazin-6-yl)-N-((S)-2-((S)-3-hydroxypyrrolidin-1-yl)-1-(3-(2-(methylsulfonamido)-2-oxoethoxy)phenyl)ethyl)-N-methylacetamide] | ≤ 50 nM
CN(C(=O)Cc1ccc2c(c1)NC(=O)CS2)[C@H](CN1CC[C@H](O)C1)c1cccc(OCC(N)=O)c1 [Example 175, N-((S)-1-(3-(2-amino-2-oxoethoxy)phenyl)-2-((S)-3-hydroxypyrrolidin-1-yl)ethyl)-N-methyl-2-(3-oxo-3,4-dihydro-2H-benzo[b][1,4]thiazin-6-yl)acetamide] | ≤ 50 nM
CN(C(=O)Cc1ccc2oc(=O)[nH]c2c1)[C@H](CN1CC[C@H](O)C1)c1cccc(C(=O)O)c1 [Example 176, 3-((S)-2-((S)-3-hydroxypyrrolidin-1-yl)-1-(N-methyl-2-(2-oxo-2,3-dihydrobenzo[d]oxazol-5-yl)acetamido)ethyl)benzoic acid] | ≤ 50 nM
CN(C(=O)Cc1ccc2c(c1)NC(=O)C2)[C@H](CN1CC[C@H](O)C1)c1cccc(C(=O)NS(C)(=O)=O)c1 [Example 177, 3-((S)-2-((S)-3-hydroxypyrrolidin-1-yl)-1-(N-methyl-2-(2-oxoindolin-6-yl)acetamido)ethyl)-N-(methylsulfonyl)benzamide] | ≤ 50 nM
